In this experiment the test system is human recombinant ALDH3A1 (6-His). Nature of the experiment: Phage display panning, Ph.D.-12 random 12-mer library (3 rounds, clones sequenced). Type of experiment: binding. The following applies: for Frequency of appearance: clones out of 33 sequenced after third panning round, 75 μg ALDH3A1 coated, Ph.D.-12 library. As to the method: For phage titration, 50 μL of an overnight E. coli ER2738 (host strain) culture were used for the inoculation of 5 mL Luria Broth (LB) which was subsequently cultivated at 37°C (220 rpm). When E. coli ER2738 culture reached an OD600 value of approximately 0.5, 200 μL of the culture were mixed with 10 μL of the phage solution and the mixture was vortexed and incubated for 5 min at room temperature (RT). Subsequently, it was diluted in 3 mL of warm agarose top (0.7% agarose, 0.5% yeast extract, 1% Bacto-Tryptone, 0.5% NaCl, 0.1% MgCl2•H2O) and poured in LB/IPTG/Xgal agar plates (LB agar plates with 0.004% X-gal 0.005% IPTG). Plates were incubated overnight at 37°C.
The procedure was initiated with the amplification of the phage plaques as described in 2.5 with the exception that after the first centrifugation, 500 μL of the supernatant was transferred into a fresh tube. Then, 200 μL PEG/NaCl were added and the sample was mixed and incubated at RT for 10 min. The sample was subsequently centrifuged at 14,000 rpm, for 10 min at 4°C and the supernatant was removed. After the second round of centrifugation under the same conditions, the remaining supernatant was carefully discarded. Pellet was then re-suspended in 100 μL of iodine buffer (4M NaI, 1 mM EDTA, 10 mM Tris-HCl, pH 8.0) and 250 μL of ethanol were subsequently added. The mixture was incubated at RT for 10 min, centrifuged at 14,000 rpm for 10 min at RT, and the supernatant was discarded. Finally, 70% of pure ethanol was used for DNA wash and the pellet was suspended in 30 μL sterilized ddH2O. Samples were stored at −20°C until needed. Isolated M13 phage ssDNA (∼120 ng) was subjected to agarose gel electrophoresis, and the residual volume of the ssDNA was sent for single extension sequencing from the primer 5′-CCCTCATAGTTAGCGTAACG-3’. Sequencing was conducted by VBC biotech (Vienna, Austria). The resulting sequences were used for the estimation of the respective 12-mer peptides. […]

Entries after “also recorded” stand apart in the source; their conditions may differ.

Take “WPTYVSPFRSPP [P1, …, prevailing 12-mer phage display peptide, synthesised by Genecust]”: the Frequency of appearance was 30 out of 33. Where the note is “listed as WPTYVSPFRSPP”, the Frequency of appearance is given as 30 out of the 33. For the same sequence, the “Strength of interaction with recombinant hALDH3A1” value (inferred from frequency of appearance) was “strongest and most specific interaction with the recombinant hALDH3A1; also recorded: appeared to bind most efficiently to hALDH3A1”.

The values are drawn from article PMC10067601, “Identification of a peptide ligand for human ALDH3A1 through peptide phage display: Prediction and characterization of protein interaction sites and inhibition of ALDH3A1 enzymatic activity” (Frontiers in Molecular Biosciences, 2023).
